These results are taken from US20240132492A1, “PYRIDOPYRIMIDINE-BASED COMPOUND AND APPLICATION THEREOF” (JINAN UNIVERSITY, priority 2021, published 2024).

What all share (format): cell-based
In one assay the target is AKT3 (Homo sapiens, UniProt Q9Y243). As to the kind of experiment: Western Blot, degradation of AKT3 protein in H1975-OR cells. More on the design: endogenous in cells; host or cells: H1975-OR (osimertinib-resistant H1975). Particulars: 24 hours, maximum degradation rate; for Dmax at 1 µM: 1000 nM. As for the experimental part:
(§1) Cell line: Non-small cell lung cancer H1975-OR cell line, which is an Osimertinib resistant H1975 cell line, and could be obtained through low dose gradual addition culture. Specific method: H1975 cells were spread in a 10 cm culture dish at a convergence rate of 60-70%, added 50 nM of Osimertinib to the culture medium. After the cell state stabilized, the concentration of Osimertinib was gradually double to 3 μM.
(§2) Conventional Western Blot (immunoblotting) was used for detection, as follows: a certain number of H1975-OR cells were planted on a 96 well plate, adherent cultured in an incubator overnight, and added a certain concentration of compound to act for 24 hours. 1×SDS lysis buffer with protease and phosphatase inhibitors was used to lyse cells. Cell lysates were separated by SDS-PAGE and transferred to PVDF membrane. Then, at room temperature, the PCDF membrane was taken out and immersed in a sealing solution (5% BSA TBS solution containing 0.5% Tween-20) for sealing treatment for 1 hour, and then incubated with a specific primary antibody at 4° C. overnight. The imprints were washed with TBST and incubated with horseradish peroxidase (HRP) labeled secondary antibodies at room temperature for 2 hours. Finally, ECL plus fluorescence detection reagent (Thermo Scientific, Waltham, MA) was used for protein development, and the Amersham Imager 600 system (GE, America) was used for photography. The detection results were processed using ImageJ software to obtain the grayscale value G (Density).

For a further assay, the target named is T1, AKT1 (Homo sapiens, UniProt P31749).
T1 construct: AKT1, AKT2, and AKT3 proteins in H1975-OR cells; endogenous in cells; host or cells: H1975-OR (osimertinib-resistant H1975)
T1 sequence (P31749 whole entry): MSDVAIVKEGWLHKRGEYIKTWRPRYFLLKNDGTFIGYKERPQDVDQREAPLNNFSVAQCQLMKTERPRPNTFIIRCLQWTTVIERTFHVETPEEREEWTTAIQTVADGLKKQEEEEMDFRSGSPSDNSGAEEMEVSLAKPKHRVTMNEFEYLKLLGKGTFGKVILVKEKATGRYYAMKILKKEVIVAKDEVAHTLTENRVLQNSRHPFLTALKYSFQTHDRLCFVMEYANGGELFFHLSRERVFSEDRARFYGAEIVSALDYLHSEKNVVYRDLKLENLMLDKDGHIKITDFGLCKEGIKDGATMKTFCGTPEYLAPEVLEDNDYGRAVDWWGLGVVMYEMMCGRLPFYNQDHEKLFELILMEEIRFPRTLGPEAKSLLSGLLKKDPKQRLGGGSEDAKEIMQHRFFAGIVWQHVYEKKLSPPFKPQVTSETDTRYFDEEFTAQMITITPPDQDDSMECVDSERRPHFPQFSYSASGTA
Briefly: Western Blot, degradation of AKT1 protein in H1975-OR cells. Particulars: 24 hours, maximum degradation rate; for Dmax at 1 µM: 1000 nM. As for the experimental part:
as §1, §2

The target of the next assay is T2, AKT2 (Homo sapiens, UniProt P31751).
T2 construct: AKT1, AKT2, and AKT3 proteins in H1975-OR cells; endogenous in cells; host or cells: H1975-OR (osimertinib-resistant H1975)
T2 sequence (P31751 whole entry): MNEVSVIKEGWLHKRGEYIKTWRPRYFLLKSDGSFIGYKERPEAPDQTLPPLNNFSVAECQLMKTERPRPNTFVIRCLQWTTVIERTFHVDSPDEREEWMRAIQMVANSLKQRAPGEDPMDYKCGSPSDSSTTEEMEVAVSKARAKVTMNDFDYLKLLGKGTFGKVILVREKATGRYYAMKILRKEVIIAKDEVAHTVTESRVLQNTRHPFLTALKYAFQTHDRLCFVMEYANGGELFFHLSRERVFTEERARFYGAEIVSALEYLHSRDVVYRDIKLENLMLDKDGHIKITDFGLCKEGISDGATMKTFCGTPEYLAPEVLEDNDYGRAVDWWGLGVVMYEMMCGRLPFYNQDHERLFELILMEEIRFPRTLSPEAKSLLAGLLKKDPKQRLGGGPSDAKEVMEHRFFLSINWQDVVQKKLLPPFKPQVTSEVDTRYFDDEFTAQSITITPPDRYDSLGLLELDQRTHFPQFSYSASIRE
Briefly: Western Blot, degradation of AKT2 protein in H1975-OR cells. Particulars: 24 hours, maximum degradation rate; for Dmax at 1 µM: 1000 nM. As for the experimental part:
as §1, §2

The subject of the next assay is H1975. Briefly: CCK-8 tumor cell proliferation, H1975. Particulars: 72 hours. Here is the method: (§3) Tumor cells (see Table 2 to Table 5) were inoculated in 96-well plates in complete culture medium (2000-3000 cells/well). After overnight incubation, the compounds with different concentrations (0.000508 μM-10 μM) were used to treat the cells separately for 72 hours. CCK-8 (Cell Counting Kit 8, Dojindo Laboratories, Kumamoto, Japan) experiment was used to evaluate cell proliferation. GraphPad Prism 5.0 software (La Jolla, CA) was used to calculate the half-maximal inhibitory concentration (IC50) values by fitting the concentration response curve. Each IC50 value was represented as an average value±SD.

Another assay relates to H1975OR. As to the kind of experiment: CCK-8 tumor cell proliferation, H1975OR. Particulars: H1975OR cells (Osimertinib resistant), 72 hours. As for the experimental part:
as §1, §3

[1] abbreviates: Homo sapiens, NCI-H1975, H1975 cells.

AKT3, sequence (Q9Y243 whole entry): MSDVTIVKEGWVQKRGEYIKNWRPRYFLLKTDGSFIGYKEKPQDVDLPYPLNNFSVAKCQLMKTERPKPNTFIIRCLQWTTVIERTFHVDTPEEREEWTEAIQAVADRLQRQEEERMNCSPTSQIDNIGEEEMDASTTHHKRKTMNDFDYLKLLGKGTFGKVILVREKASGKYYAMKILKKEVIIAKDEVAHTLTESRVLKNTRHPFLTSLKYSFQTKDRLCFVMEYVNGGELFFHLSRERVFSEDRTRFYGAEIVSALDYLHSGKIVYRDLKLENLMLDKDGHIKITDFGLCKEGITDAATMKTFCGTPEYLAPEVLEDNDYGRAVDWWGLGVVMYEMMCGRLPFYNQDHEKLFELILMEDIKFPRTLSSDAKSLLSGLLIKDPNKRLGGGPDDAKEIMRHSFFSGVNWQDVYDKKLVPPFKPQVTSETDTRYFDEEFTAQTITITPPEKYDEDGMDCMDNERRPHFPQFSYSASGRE

As to `COc1cc(N2CCN(CCCCCCCCCCCCNC(=O)CC34CC5CC(CC(C5)C3)C4)CC2)ccc1Nc1ncc2c(C)cc(=O)n(-c3cccc(NCC4CCC4)c3)c2n1` [ZX-HYT-39, 2-((3R, 5R, 7R)-adamantan-1-yl)-N-(12-(4-(4-((8-(3-((cyclobutylmethyl)amino)phenyl)-5-methyl-7)-oxo-7,8-dihydropyridino [2,3-d]pyrimidin-2-yl)amino)-3-methoxyphenyl)piperazin-1-yl) dodecyl) acetamide], the figures for the Dmax at 1 µM on AKT3, on AKT1 and on AKT2 were 55.3%, 0% and 51%, respectively. Also, the IC50 amounted to 0.00919 ± 0.00567 µM with H1975 (setting [1]) and 0.0102 ± 0.004 µM with H1975OR.
In the same order, the values of `COc1cc(N2CCN(CCCCCCCCCCCCNC(=O)CC34CC5CC(CC(C5)C3)C4)CC2)ccc1Nc1ncc2c(C)cc(=O)n(-c3cccc(OCC4CC4)c3)c2n1` [ZX-HYT-40, 2-((3R, 5R, 7R)-adamantan-1-yl)-N-(12-(4-(4-((8-(3-(cyclopropylmethoxy)phenyl)-5-methyl-7-oxo-) 7,8-dihydropyridino [2,3-d]pyrimidin-2-yl)amino)-3-methoxyphenyl)piperazin-1-yl) dodecyl) acetamide] are 53%, 32%, 30.7%, 0.0864 ± 0.0296 µM and 0.0609 ± 0.014 µM.
In the case of `COc1cc(N2CCN(CCCCCCCCCCCCNC(=O)CC34CC5CC(CC(C5)C3)C4)CC2)ccc1Nc1ncc2c(C)cc(=O)n(-c3cccc(N(C)C)c3)c2n1` [ZX-HYT-43, 2-((3R, 5R, 7R)-adamantan-1-yl)-N-(12-(4-(4-((8-(3-(dimethylamino)phenyl)-5-methyl-7-oxy-7,8-dihydropyridino [2,3-d]pyrimidin-2-yl)amino)-3-methoxyphenyl)piperazin-1-yl)dodecyl) acetamide], the Dmax at 1 µM at AKT3 came to 37.9%; at AKT1, 57.5%; on AKT2, 30.5%. For the same compound, the IC50 with H1975 (setting [1]) is 0.257 ± 0.0423 µM; with H1975OR, 0.172 ± 0.0204 µM.
For `COc1cc(N2CCN(CCCCCCCCCCCCNC(=O)CC34CC5CC(CC(C5)C3)C4)CC2)ccc1Nc1ncc2c(C)cc(=O)n(-c3cccc(NCC4CNC4)c3)c2n1` [ZX-HYT-44, 2-((3R, 5R, 7R)-adamantan-1-yl)-N-(12-(4-(4-((8-(3-((azacyclobutane-3-ylmethyl)amino)phenyl)-5-methyl-7-oxy-7,8-dihydropyridino [2,3-d]pyrimidin-2-yl)amino)-3-methoxyphenyl)piperazin-1-yl)dodecanyl) acetamide], the Dmax at 1 µM on AKT3 was found to be 40.1%; on AKT1, 22.4%; at AKT2, 23.6%. Also, the values for the concentration for half-maximal inhibition (IC50) in the assay with H1975 (setting [1]) and with H1975OR were 5.39 ± 0.293 µM and 8.09 ± 0.432 µM, respectively.
The corresponding values for `COc1cc(N2CCN(CCCCCCCCCCCCNC(=O)CC34CC5CC(CC(C5)C3)C4)CC2)ccc1Nc1ncc2c(C)cc(=O)n(-c3cccc(NC4CNC4)c3)c2n1` [ZX-HYT-45, 2-((3R, 5R, 7R)-adamantan-1-yl)-N-(12-(4-(4-((8-(3-(azacyclobutane-3-ylamino)phenyl)-5-methyl-7-oxy-7,8-dihydropyridino [2,3-d]pyrimidin-2-yl)amino)-3-methoxyphenyl)piperazin-1-yl)dodecyl) acetamide] are 29.1%, 32.8%, 17.6%, 2.4 ± 0.226 µM and 2.35 ± 0.11 µM.
In the same order, the values of `COc1cc(N2CCN(CCCCCCCCNC(=O)CC34CC5CC(CC(C5)C3)C4)CC2)ccc1Nc1ncc2c(C)cc(=O)n(-c3cccc(NC(=O)C4CC4)c3)c2n1` [ZX-HYT-47, N-(3-(2-((4-(4-(8-(2-((3R, 5R, 7R)-adamantan-1-yl)acetylamino)octyl)piperazin-1-yl)-2-methoxyphenyl))amino)-5-methyl-7-oxypyridino [2,3-d]pyrimidin-8 (7H)-yl) phenyl) cyclopropane formamide] are 67.5%, 0%, 0%, 0.0365 ± 0.0012 µM and 0.0224 ± 0.0127 µM.
Take `COc1cc(N2CCN(CCCCCCCCNC(=O)CC34CC5CC(CC(C5)C3)C4)CC2)ccc1Nc1ncc2c(C)cc(=O)n(-c3cccc(NC(=O)C(C)(C)C)c3)c2n1` [ZX-HYT-48, N-(3-(2-((4-(4-(8-(2-((3R, 5R, 7R)-adamantan-1-yl)acetylamino)octyl)piperazin-1-yl)-2-methoxyphenyl))amino)-5-methyl-7-oxypyridino [2,3-d]pyrimidin-8 (7H)-yl) phenyl) neopentanamide]: the maximal degradation (Dmax) at 1 µM on AKT3 is 60.6%; on AKT1 it was 0%; on AKT2 it was 34.2%. In addition, the values for the IC50 in the assay with H1975 (setting [1]) and with H1975OR were 0.187 ± 0.0357 µM and 0.105 ± 0.052 µM, respectively.
In the same order, the values of `CCC(=O)Nc1cccc(-n2c(=O)cc(C)c3cnc(Nc4ccc(N5CCN(CCCCCCCCNC(=O)CC67CC8CC(CC(C8)C6)C7)CC5)cc4OC)nc32)c1` [ZX-HYT-49, N-(3-(2-((4-(4-(8-(2-((3R, 5R, 7R)-adamantan-1-yl)acetylamino)octyl)piperazin-1-yl)-2-methoxyphenyl))amino)-5-methyl-7-oxypyridino [2,3-d]pyrimidin-8 (7H)-yl) phenyl) propionamide] are 61.6%, 0%, 26.1%, 0.0958 ± 0.0126 µM and 0.0346 µM.
In the same order, the values of `COc1cc(N2CCN(CCCCCCCCNC(=O)C[C@]34CC5C[C@@](C)(C[C@@](C)(C5)C3)C4)CC2)ccc1Nc1ncc2c(C)cc(=O)n(-c3cccc(NC(=O)C4CC4)c3)c2n1` [ZX-HYT-59, N-(3-(2-((4-(4-(8-(2-((1S, 3R, 5S, 7R)-3,5-dimethyladamantan-1-yl)acetamido)octyl)piperazin-1-yl)-2-methoxyphenyl)amino)-5-methyl-7-oxypyridino [2,3-d]pyrimidin-8 (7H)-yl)phenyl) cyclopropanilamide] are 38.9%, 30.3%, 24.7%, 0.121 ± 0.0449 µM and 0.0939 ± 0.004 µM.
`COc1cc(N2CCN(CCCCCCCCNC(=O)C3C[C@H]4C=C[C@@H]3C4)CC2)ccc1Nc1ncc2c(C)cc(=O)n(-c3cccc(NC(=O)C4CC4)c3)c2n1` (some centres unmarked) [ZX-HYT-60]: the greatest degradation seen (Dmax) at 1 µM at AKT3 is 18.9%; at AKT1, 13%; on AKT2, 0%. In addition, the IC50 in the assay with H1975 (setting [1]) came to 0.135 ± 0.0948 µM; in the assay with H1975OR, 0.107 ± 0.0194 µM.
In the case of `COc1cc(N2CCN(CCCCCCCCNC(=O)C3C[C@H]4CC[C@@H]3C4)CC2)ccc1Nc1ncc2c(C)cc(=O)n(-c3cccc(NC(=O)C4CC4)c3)c2n1` (some centres unmarked) [ZX-HYT-61], the values for the Dmax at 1 µM at AKT3, on AKT1 and on AKT2 were 15.9%, 14.2% and 31.5%, respectively. Further, the IC50 in the assay on H1975 (setting [1]) came to 0.0738 ± 0.0456 µM; with H1975OR, 0.103 ± 0.0592 µM.
The corresponding values for `COc1cc(N2CCN(CCCCCCCCNC(=O)C3CC3)CC2)ccc1Nc1ncc2c(C)cc(=O)n(-c3cccc(NC(=O)C4CC4)c3)c2n1` [ZX-HYT-62] are 18.8%, 28.4%, 15.1%, 0.0551 ± 0.0232 µM and 0.0487 ± 0.004 µM.
Take “N-(3-(2-((4-(4-(12-((2-((3R, 5R, 7R)-adamantan-1-yl) ethyl) amino) dodecyl) piperazin-1-yl)-2-methoxyphenyl) amino)-5-methyl-7-oxypyrano [2,3-d] pyrimidin-8 (7H)-yl) phenyl) cyclopropane formamide [ZX-HYT-29]”: the “Dmax (%) at 1000 nM AKT3” value on AKT3 is listed as 54.7%. On AKT1, the “Dmax (%) at 1000 nM AKT1” value is recorded as 57.51%. The “Dmax (%) at 1000 nM AKT2” value on AKT2 was found to be 36.43%. Also, the 50% inhibitory concentration (IC50) was found to be 0.98 ± 0.21 µM in the assay on H1975 (H1975 cells) and 0.98 ± 0.25 µM in the assay with H1975OR.
